Test [1] has as its system Rac1. Nature of the test: Rac1 activation assay (G-LISA). Format: cell-based. The following applies: cells incubated 2 minutes at 1 and 10 μg/mL. The protocol:
Cell cultures were incubated with each tested compound for 2 minutes at concentrations of 1 and 10 μg/mL, after which the cells were tested for Rac1 activation using a G-LISA activation assay. The cells were lysed and the lysates introduced into wells containing Rac-GTP-binding protein, then sequentially incubated with anti-Rac1 antibody and a horseradish peroxidase-linked secondary antibody. The amount of horseradish peroxidase was then quantitated to evaluate the Rac1 activation potency of each compound studied.

The test system of the next test is irradiated mice. Nature of the test: Survival and HSC regeneration of irradiated mice. Conditions: for Survival of irradiated mice: lethal dose irradiation (750 cGy). Type of test: in vivo. An excerpt: (§1) A) CFU-GEMMs produced by TSF media vs. TSF+GJ001 (p=0.001). B) Percentage of BM KSL cells expressing Rac1GTP (p=0.008). C) Survival of mice irradiated with 750 cGy followed by treatment with DJ001 or vehicle (p=0.0007). D) % BM KSL cells (blue) and % ckit^+sca-1^−lin^− progenitors (gray) at day +21 in irradiated mice.
10 week old female C57BL/6 mice were irradiated with 750 cGy TBI, which is lethal for approximately 50% of C57BL/6 mice by day +30 (LD50/30), using a Shepherd Cesium-137 irradiator. Twenty four hours post-irradiation, mice were administered daily subcutaneous injections of 5 mg/kg DJ001 (or DJ009) or vehicle in a volume of 100 μL for 10 days. DJ001 injections were prepared in PBS, 0.5% Tween 80, and 10% DMSO. Corresponding vehicle injections contained PBS, 10% DMSO and 0.5% Tween 80. PB complete blood counts were measured using a Hemavet 950 instrument (Drew Scientific) at day +10 post-irradiation. For hematopoietic analysis, BM cells were collected at day +10 post-irradiation. To study whether DJ001 increased survival rates through activation of RAC signaling, the RAC inhibitor, EHT1864 (Selleckchem), was dissolved in PBS and administered intraperitoneally, 40 mg/kg every other day, to 750 cGy irradiated mice until day +10. For DJ009 studies, ten week old female C57BL/6 mice were irradiated with 550 cGy TBI and then given daily subcutaneous injections of 5 mg/kg of DJ009 or vehicle in a volume of 100 μL for 3 days. DJ009 injections were prepared in PBS, 0.5% Tween 80, and 10% DMSO. Vehicle injections contained 10% DMSO and 0.5% Tween 80. At day +3 post 550 cGy irradiation, we collected PB and BM cells for CBCs and hematopoietic analysis. Exemplary results of this assay are depicted in FIG. 8 and FIG. 17.

Test [2] deals with hematopoietic colony formation. Briefly: Hematopoietic colony formation (CFC assay). Type of test: cell-based. The protocol:
CFC assays (colony-forming unit-granulocyte monocyte (CFU-GM), burst-forming unit-erythroid (BFU-E), and colony-forming unit-granulocyte erythroid monocyte megakaryocyte (CFU-GEMM) were performed using MethoCult GF M3434 (Stemcell Technologies), as we have previously described^1,5. For all in vitro assays, BM CD34^−KSL cells, KSL cells, and Lin cells were cultured in TSF media (IMDM, 10% FBS, 1% pen-strep, 20 ng/mL recombinant mouse Thrombopoietin (TPO), 125 ng/mL recombinant mouse Stem Cell Factor (SCF), 50 ng/mL recombinant mouse Flt3 ligand) and treated as described. Recombinant mouse SCF, Flt-3 ligand, and TPO were purchased from R&D Systems. For competitive repopulation assays, BM cells were isolated from donor 10-12 week old female CD45.2^+ mice. Recipient 10 week old female CD45.1^+ B6.SJL mice were irradiated with 950 cGy TBI using a Cs137 irradiator, and donor BM cells were administered via tail vein injection along with a competing dose of 1×10^5 non-irradiated host BM cells. Multilineage donor hematopoietic cell engraftment was measured in the PB by flow cytometry.

Test [3] has as its system Rac1. Nature of the test: Rac1 signaling in HSCs (BM KSL cells expressing Rac1GTP). Format: cell-based. The protocol: as §1
Intracellular flow cytometric analysis was performed on irradiated (300 cGy) or non-irradiated, sorted KSL cells after treatment with 1 μg/mL DJ001 or control (equal volumes of DMSO) for 24 hours. At 24 hours after irradiation, cells were fixed with 4% PFA for 10 min, followed by permeabilization using 0.25% saponin in PBS. Cells were washed again and stained with antibody at the recommended concentrations for 30 minutes at room temperature. Intracellular antibodies and phospho-flow antibodies used were: FITC-conjugated anti-BCL-XL (Abcam #ab26148), active RAC1-GTP antibody (NewEast Biosciences #26903), and anti-PAK1 (phospho S144)+PAK2 (phospho S141)+PAK3 (phospho S154) antibody (Abcam #ab40795).

The next test has as its target T1, PTPRS (Homo sapiens, UniProt Q13332).
T1 construct: The two interacellular catalytic domains (D1D2) of PTPRS were cloned into a pET28a vector; made in house; host or cells: E. coli BL21
T1 sequence (Q13332 1304-1948 limits assumed): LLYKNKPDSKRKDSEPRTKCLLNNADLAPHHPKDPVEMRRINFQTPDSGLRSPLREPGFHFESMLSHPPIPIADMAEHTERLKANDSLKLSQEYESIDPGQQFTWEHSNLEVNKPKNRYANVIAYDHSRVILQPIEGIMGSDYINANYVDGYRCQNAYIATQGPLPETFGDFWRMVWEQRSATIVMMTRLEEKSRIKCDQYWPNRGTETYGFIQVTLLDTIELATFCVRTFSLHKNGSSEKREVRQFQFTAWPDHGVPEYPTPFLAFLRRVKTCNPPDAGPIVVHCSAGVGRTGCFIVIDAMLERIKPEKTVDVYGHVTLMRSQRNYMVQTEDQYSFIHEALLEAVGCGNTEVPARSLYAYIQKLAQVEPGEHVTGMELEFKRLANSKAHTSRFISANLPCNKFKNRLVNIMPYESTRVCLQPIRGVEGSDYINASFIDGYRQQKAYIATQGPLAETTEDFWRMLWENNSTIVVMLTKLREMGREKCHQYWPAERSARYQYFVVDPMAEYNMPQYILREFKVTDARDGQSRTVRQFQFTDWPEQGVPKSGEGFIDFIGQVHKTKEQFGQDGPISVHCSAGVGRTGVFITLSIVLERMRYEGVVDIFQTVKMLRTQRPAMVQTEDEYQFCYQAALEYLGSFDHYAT
Nature of the test: In vitro phosphatase assay (modified Malachite Green Assay). Format: biochemical. Conditions: substrate titration of PTPσ; Vmax inhibited, Km constant. The protocol: The two interacellular catalytic domains (D1D2) of PTPRS were cloned into a pET28a vector and overexpressed in E. coli BL21 and purified as described in Jeon T J, et al. Structure of the Catalytic Domain of Protein Tyrosine Phosphatase Sigma in the Sulfenic Acid Form. Molecules and Cells. 2013; 36(1):55-61. doi:10.1007/s10059-013-0033-x. Enzymatic activity of PTPRS was assayed using a modified version of the Malachite Green Assay (described in Lorenz U. Protein Tyrosine Phosphatase Assays. Current protocols in immunology/edited by John E Coligan. [et al]. 2011; CHAPTER: Unit-11.7. doi:10.1002/0471142735.im1107s93) and the Tyrosine Phosphatase Assay Kit (Promega Coorperation). Unless stated otherwise, standard assays were carried out using 50 nM PTPRS protein in 1× Buffer (10 mM Tris, 5 mM MgCl2, 10 mM NaCl, 0.02% Tween) and Tyr Phosphopeptide as substrate (100 uM for FIG. 1 and 50-1200 uM in FIG. 2). […]
For IC50 determination, rates normalized relative to uninhibited controls (DMSO) were plotted against compound concentration and fitted using a four-parameter nonlinear regression curve fit ((y=[(A−D)(1+{xC−1}B)−1]+D), (Prism 6.0, Graphpad Software). For mechanism studies and determination of the enyzme's Km and Vmax, data were analyzed using a nonlinear regression fit according to classical Mechaelis-Menten kinetics model Y=Vmax*X/(Km+X) (Prism 6.0, Graphpad Software).

From patent US20210188763A1, “COMPOUNDS AND METHODS FOR HEMATOPOIETIC REGENERATION” (The Regents of the University of California, priority 2017, published 2021) come the findings set out here.

For the compound `O=C(/C=C\Nc1cccc(O)c1)c1ccccc1` [DJ015], the “Rac1 Activation” value in the test with Rac1 [1] is “yes”.

With `CC(=O)c1cccc(N/C=C\C(=O)c2ccccc2)c1` [DJ006], the “Rac1 Activation” value in the test with Rac1 [1] is reported as “no”.

For `COc1cc(N/C=C\C(=O)c2ccccc2)cc(OC)c1` [DJ012], the “Rac1 Activation” value in the test on Rac1 [1] is listed as “yes”.

In the case of `O=C(/C=C\Nc1cc(F)cc(F)c1)c1ccccc1` [DJ009, (Z)-3-((3,5-difluorophenyl)amino)-1-phenylprop-2-en-1-one], the “Rac1 Activation” value in the test on Rac1 [1] is “yes”.

With `Cc1cc(C)cc(N/C=C\C(=O)c2ccccc2)c1` [DJ011], the “Rac1 Activation” value with Rac1 [1] is listed as “yes”.

Consider `CC(C)(C)N/C=C\C(=O)c1ccccc1` [DJ019], for which the “Rac1 Activation” value in the test on Rac1 [1] is “no”.

For the compound `O=C(/C=C\NCc1ccco1)c1ccccc1` [DJ018], the “Rac1 Activation” value with Rac1 [1] is on record as “no”.

With `CN(C)c1cccc(N/C=C\C(=O)c2ccccc2)c1` [DJ008], in the test on Rac1 [1], the “Rac1 Activation” value is listed as “no”.

For `CCCCN/C=C\C(=O)c1ccccc1` [DJ017], the “Rac1 Activation” value with Rac1 [1] is reported as “no”.

With `COc1cccc(N/C=C\C(=O)c2ccccc2)c1` [DJ005], the “Rac1 Activation” value with Rac1 [1] was “no”.

Consider `O=C(/C=C\Nc1cccc(F)c1)c1ccccc1` [DJ002], for which the “Rac1 Activation” value with Rac1 [1] is given as “no”.

Regarding `O=C(/C=C\Nc1cccc(-c2ccccc2)c1)c1ccccc1` [DJ007], the “Rac1 Activation” value in the test with Rac1 [1] is listed as “no”.

For the compound `O=C(/C=C\Nc1ccccc1)c1ccccc1` [DJ013], the “Rac1 Activation” value in the test on Rac1 [1] was “yes”.

On to `CC(C)(C)[Si](C)(C)Oc1cccc(N/C=C\C(=O)c2ccccc2)c1` [DJ014], for which, in the test on Rac1 [1], the “Rac1 Activation” value is recorded as “yes”.

On to `Cc1cccc(N/C=C\C(=O)c2ccccc2)c1` [DJ004], for which, in the test with Rac1 [1], the “Rac1 Activation” value is given as “yes”.

Consider `CN(C)S(=O)(=O)c1cccc(N/C=C\C(=O)c2ccccc2)c1` [DJ016], for which the “Rac1 Activation” value in the test on Rac1 [1] was “no”.

For the compound `O=C(/C=C\Nc1cccc(C(F)(F)F)c1)c1ccccc1` [DJ003], the “Rac1 Activation” value in the test with Rac1 [1] is reported as “yes”. Moreover, in the test on irradiated mice, the “Survival of irradiated mice” value is reported as “improves survival of irradiated mice”. In test [2], the Hematopoietic colony formation entry is on record as “increases hematopoietic colony formation”.

Regarding `O=C(/C=C\Nc1cccc([N+](=O)[O-])c1)c1ccccc1` [DJ001, (Z)-3-((3-nitrophenyl)amino)-1-phenylprop-2-en-1-one], the “Rac1 Activation” value in the test with Rac1 [1] is on record as “yes”. For the same compound, the “Rac1 signaling in HSCs” value in the test with Rac1 [3] is on record as “activates Rac1 signaling”. Besides, the Mechanism of inhibition result at PTPRS is listed as “classical noncompetitive inhibitor”. Moreover, the “HSC regeneration in irradiated mice” value in the test with irradiated mice (irradiated mice) is reported as “accelerates HSC regeneration”. The “Survival of irradiated mice” value with irradiated mice is given as “dramatically increases mice survival”.
